pIC50: −log10 of the molar value. Values after ≈ are worked out from the molar mass of the structure shown. Where two headings read alike, the source gives them in different places.
Assays:
[1] = target: T1, CIB1 and αIIb interaction (GST-CIB1 : F-αIIb peptide) (Homo sapiens, UniProt Q99828); experiment: FP assay, 384-well format (screen); format: binding; conditions: 384-well FP assay; for pIC50: Table 1, read-out: FP assay IC50
T1 construct: made in house; host or cells: BL-21 plus RIL cells (E. coli)
T1 sequence (Q99828 1-191): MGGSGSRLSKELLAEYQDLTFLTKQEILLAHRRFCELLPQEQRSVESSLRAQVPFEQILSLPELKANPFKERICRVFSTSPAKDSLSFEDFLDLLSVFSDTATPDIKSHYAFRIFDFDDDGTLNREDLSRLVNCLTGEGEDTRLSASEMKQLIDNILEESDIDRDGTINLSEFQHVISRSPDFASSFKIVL

[2] = target: T2, CIB1 and αIIb interaction (CIB1-GST : F-αIIb peptide) (Homo sapiens, UniProt Q99828); experiment: FP assay, 1536-well qHTS format (primary and confirmatory screen); format: binding; conditions: for Confirm? (confirmatory screen): YES/NO; for Curve Class (confirmatory screen): qHTS curve class; for Efficacy (%) (confirmatory screen) / Confirm? (confirmatory screen) / Curve Class (confirmatory screen) / IC50: confirmatory screen; for IC50: read-out: IC50 [μM] (confirmatory screen); for Efficacy (%): negative = inhibition; for pIC50: read-out: IC50
T2 construct: made in house; host or cells: BL-21 plus RIL cells (E. coli)
T2 sequence (Q99828 1-191): T1 sequence (Q99828 1-191)

[3] = target: T3, GST-CIB1 : F-scrambled peptide (Homo sapiens, UniProt Q99828); experiment: FP scrambled-peptide counter screen, 1536-well format; format: binding; conditions: counterscreen; for Curve Class (counterscreen): qHTS curve class, negative sign = inhibitory curve; for IC50: read-out: IC50 [μM] (counterscreen)
T3 construct: made in house; host or cells: BL-21 plus RIL cells (E. coli)
T3 sequence (Q99828 1-191): T1 sequence (Q99828 1-191)

washed human platelets = experiment: Human platelet aggregation assay (thrombin-induced); format: cell-based; conditions: for inhibition at 10 µM: Homo sapiens, Platelet, single concentration of 10 μM (n = 3), thrombin; for Thrombin Assay 10 µM (%): platelet aggregation inhibition at 10 µM
Description: A classical challenge in target-based drug discovery is moving from biochemical to cellular assay and the essential step of determining if the compounds of interest can perform in a cellular context. After characterization of the compounds in a series of biochemical assay formats, our next step was to assess their activity in a cellular environment. Our previous studies have shown that the interaction of the cytoplasmic domain of integrin αIIbβ3, a key regulator of platelet aggregation, with CIB1, is involved in downstream signaling in platelet activation and aggregation. We sought to determine whether our candidate compounds were inhibiting this interaction by evaluating them for platelet function in a human platelet aggregation assay. We prepared platelet-rich plasma (PRP) and washed the platelets as previously described[44] and then performed a platelet aggregation assay using the washed platelet suspensions (2 × 10^8/platelets/mL) followed by the recording of aggregation traces (see Materials and Methods Section). To induce platelet aggregation, 0.03 U/mL of thrombin, a physiological agonist of platelet activation, was used.
Figure 6 Effect of compounds on human platelet activation. Representative platelet aggregation tracings of washed human platelet suspensions pretreated for 30 min at 37 °C with vehicle (DMSO) or compounds at indicated concentrations followed by activation with thrombin (0.03–0.1 U/mL). Panel (A): NCGC00071855. Panel (B–D): NCGC00351170. Panel (E): CD62P exposure was in the presence of NCGC00351170. Data represents mean ± SEM, n = 4 individual experiments; ns = non significant *P < 0.05, ***P < 0.001, ****P < 0.0001.
Whole blood was drawn by venipuncture from healthy adult volunteers (of both gender and race) with informed consent. Approval was obtained from the institutional review boards of Thomas Jefferson University, according to the Declaration of Helsinki. Blood was collected in acidified citrate dextrose as an anticoagulant. Platelet-rich plasma (PRP) and washed platelets were prepared, as previously described.[44] Platelet aggregation was performed using washed platelet suspensions containing 2 × 10^8 platelets/mL using a Chrono-Log Lumi-Aggregometer (Chrono-Log), as described previously.[11] Aggregation traces were recorded by using Aggrolink software (Chrono-Log). Thrombin-induced P-selectin (CD62P) exposure was performed using Accuri C6 flowcytometer (BD Bioscience) as described previously.[11]
Figure S9: Effect of compounds on human platelet activation. Representative platelet aggregation
tracings of washed human platelet suspensions treated with vehicle (DMSO) or indicated
compounds at 10 μM for 30 minutes at 37 °C followed by activation with thrombin (0.03U/mL).

[4] = In vitro ADME: solubility; format: physicochemical
[5] = In vitro ADME: PAMPA permeability
[6] = negative sign = inhibitory curve
[7] = qHTS primary screen hits, Table S2

pIC50 [1]	solubility [4]	PAMPA [5]	IC50 ([1]; log of IC50 in M (negative values), read-out: FP Assay LOG IC50 (converted))	SMILES	Efficacy (%) (confirmatory screen) [2]	Confirm? (confirmatory screen) [2]	Curve Class (confirmatory screen) [2, 6]	IC50 [2]	Efficacy (%) ([2]; qHTS FP screen hits, Table S2)	pIC50 ([2]; qHTS FP screen hits, Table S2)	Efficacy (%) (counterscreen) [3]	Curve Class (counterscreen) [3]	IC50 [3]	inhibition at 10 µM (washed human platelets)	Thrombin Assay 10 µM (%) (washed human platelets)	solubility ([4]; read-out: Solubility)	Papp [5]	Efficacy (%) [2, 7]	Curve Class ([2]; qHTS primary screen hits, Table S2, negative sign = inhibitory curve, several classes where COUNT > 1)	pIC50 [2, 7]
–	14 µg/mL (≈ 45.7 µM)	153 10-6 cm/s	–	O=C(c1cccs1)c1no[n+]([O-])c1C(=O)c1cccs1 [NCGC00071855-06]	–	–	–	–	–	–	–	–	–	–	–	–	–	–	–	–
4.68	–	–	–	O=C(c1cccc(OCc2ccccc2)c1)c1no[n+]([O-])c1C(=O)c1cccc(OCc2ccccc2)c1 [NCGC00351160-01]	–	–	–	–	–	–	–	–	–	49%	49%	5 µg/mL (≈ 9.87 µM)	5.74 ×10⁻⁶ cm/s	–	–	–
5.12	–	–	7.41 µM	O=C(c1ccc(F)cc1)c1no[n+]([O-])c1C(=O)c1ccc(F)cc1 [NCGC00351162-02]	–	–	–	–	–	–	–	–	–	97%	97%	34 µg/mL (≈ 103 µM)	–	-58%	–	4.58

Second part, the compound before the results:

SMILES	pIC50 [1]	solubility [4]	PAMPA [5]	IC50 ([1]; log of IC50 in M (negative values), read-out: FP Assay LOG IC50 (converted))	Efficacy (%) (confirmatory screen) [2]	Confirm? (confirmatory screen) [2]	Curve Class (confirmatory screen) [2, 6]	IC50 [2]	Efficacy (%) ([2]; qHTS FP screen hits, Table S2)	pIC50 ([2]; qHTS FP screen hits, Table S2)	Efficacy (%) (counterscreen) [3]	Curve Class (counterscreen) [3]	IC50 [3]	inhibition at 10 µM (washed human platelets)	Thrombin Assay 10 µM (%) (washed human platelets)	solubility ([4]; read-out: Solubility)	Papp [5]	Efficacy (%) [2, 7]	Curve Class ([2]; qHTS primary screen hits, Table S2, negative sign = inhibitory curve, several classes where COUNT > 1)	pIC50 [2, 7]
COc1ccc(C(=O)c2no[n+]([O-])c2C(=O)c2ccc(OC)cc2)cc1.O=C(O)C(F)(F)F [NCGC00064079-03]	5.34	–	–	–	-37%	YES	-1.4	6.3 µM	-27%	5.05	-30%	-1.4	3.2 µM	99%	99%	9 µg/mL	285 ×10⁻⁶ cm/s	–	–	–
O=C(O)C(F)(F)F.O=C(c1cccs1)c1no[n+]([O-])c1C(=O)c1cccs1 [NCGC00071855-05]	–	–	–	–	–	–	–	–	–	–	–	–	–	–	–	18 µg/mL	187 ×10⁻⁶ cm/s	-48%	-1.2	4.94
O=C(O)C(F)(F)F.O=C(c1ccc(F)cc1)c1no[n+]([O-])c1C(=O)c1ccc(F)cc1 [NCGC00351162-01]	–	–	–	–	-69%	YES	-1.2	12.6 µM	–	–	-68%	-2.2	35.5 µM	–	–	> 49 µg/mL	6.01 ×10⁻⁶ cm/s	–	–	–

Reference: article PMC11249646, “Small-Molecule Disruptors of the Interaction between Calcium- and Integrin-Binding Protein 1 and Integrin αIIbβ3 as Novel Antiplatelet Agents” (ACS Pharmacology & Translational Science, 2024)
